Consider eleven molecules from patent US20210032291A1, “Compstatin Analogs With Improved Pharmacokinetic Properties” (The Trustees of the University of Pennsylvania, priority 2011, published 2021).

In data set [1] the test system is classical pathway of complement. Put plainly: ELISA inhibition of classical pathway complement activation. Format: biochemical. The settings on record: read-out: IC50, peptide concentration to reach 50% inhibition of classical pathway complement activation; Table 1. The procedure: Inhibition of complement activation. The ability of the compstatin analogs to inhibit the activation of the classical pathway of complement was assessed by ELISA as described elsewhere (Katragadda et al., 2006, supra; Mallik et al., 2005, supra). The percent inhibition was plotted against the peptide concentration, and the resulting data set was fitted to the logistic dose-response function using Origin 8.0 software. IC50 values were obtained from the fitted parameters that produced the lowest χ2 value. Each analog was assayed at least three times.
On the technique in general: An ELISA detects its analyte on a solid surface through an enzyme-linked reagent.

Data set [2] is described as follows: Solubility in WFI and DPBS; UPLC C18 retention time as hydrophobicity. The settings on record: for solubility at 5 min: Dulbecco's phosphate buffered saline, pH 7.4.
Protocol: Approximately 5 mg of each peptide (acetate form) was weighed out into separate LoBind Eppendorf tubes and 50 μL water for injection (WFI) was added to each tube. Each sample was centrifuged at 13000 rpm for 2 min and diluted for measuring the optical density (OD) at 280 nm using a NanoDrop 2000 spectrophotometer (ThermoScientific, Wilmington, Del.). Each concentrated sample was diluted 1:20 into Dulbecco's phosphate buffered saline (DPBS, without potassium and calcium; Invitrogen, Carlsbad, Calif.). The samples were monitored for precipitation, and each sample was vortexed for 5 min and centrifuged at 13000 rpm for 2 min. The OD of each DPBS supernatant was measured to determine peptide concentration at saturation.
In addition, the ultra performance liquid chromatography (UPLC) retention time of these peptides on a C18 column was measured to reflect their apparent relative hydrophobicity (Table 3).
The target of a further data set is T1, C3b (Homo sapiens, UniProt P01024).
T1 construct: Biotinylated C3b was captured site-specifically on a streptavidin chip
T1 sequence (P01024 23-667 limits assumed): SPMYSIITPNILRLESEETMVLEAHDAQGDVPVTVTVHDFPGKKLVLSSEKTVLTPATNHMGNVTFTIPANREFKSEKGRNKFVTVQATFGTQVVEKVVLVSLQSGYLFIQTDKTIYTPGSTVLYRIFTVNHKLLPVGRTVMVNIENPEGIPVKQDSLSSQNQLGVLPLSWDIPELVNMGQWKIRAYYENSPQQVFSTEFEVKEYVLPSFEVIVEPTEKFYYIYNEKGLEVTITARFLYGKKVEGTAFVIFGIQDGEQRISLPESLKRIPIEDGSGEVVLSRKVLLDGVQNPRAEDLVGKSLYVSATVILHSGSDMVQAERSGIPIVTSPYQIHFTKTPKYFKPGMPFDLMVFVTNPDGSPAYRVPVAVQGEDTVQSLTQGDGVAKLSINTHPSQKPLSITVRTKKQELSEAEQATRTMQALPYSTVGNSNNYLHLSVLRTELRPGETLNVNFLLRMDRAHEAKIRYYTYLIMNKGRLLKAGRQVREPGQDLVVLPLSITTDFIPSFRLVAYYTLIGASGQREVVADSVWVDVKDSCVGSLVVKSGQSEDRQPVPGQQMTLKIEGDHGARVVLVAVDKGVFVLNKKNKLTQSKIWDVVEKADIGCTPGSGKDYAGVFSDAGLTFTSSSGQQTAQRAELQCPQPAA
T1 sequence (P01024 749-1663 partner limits assumed): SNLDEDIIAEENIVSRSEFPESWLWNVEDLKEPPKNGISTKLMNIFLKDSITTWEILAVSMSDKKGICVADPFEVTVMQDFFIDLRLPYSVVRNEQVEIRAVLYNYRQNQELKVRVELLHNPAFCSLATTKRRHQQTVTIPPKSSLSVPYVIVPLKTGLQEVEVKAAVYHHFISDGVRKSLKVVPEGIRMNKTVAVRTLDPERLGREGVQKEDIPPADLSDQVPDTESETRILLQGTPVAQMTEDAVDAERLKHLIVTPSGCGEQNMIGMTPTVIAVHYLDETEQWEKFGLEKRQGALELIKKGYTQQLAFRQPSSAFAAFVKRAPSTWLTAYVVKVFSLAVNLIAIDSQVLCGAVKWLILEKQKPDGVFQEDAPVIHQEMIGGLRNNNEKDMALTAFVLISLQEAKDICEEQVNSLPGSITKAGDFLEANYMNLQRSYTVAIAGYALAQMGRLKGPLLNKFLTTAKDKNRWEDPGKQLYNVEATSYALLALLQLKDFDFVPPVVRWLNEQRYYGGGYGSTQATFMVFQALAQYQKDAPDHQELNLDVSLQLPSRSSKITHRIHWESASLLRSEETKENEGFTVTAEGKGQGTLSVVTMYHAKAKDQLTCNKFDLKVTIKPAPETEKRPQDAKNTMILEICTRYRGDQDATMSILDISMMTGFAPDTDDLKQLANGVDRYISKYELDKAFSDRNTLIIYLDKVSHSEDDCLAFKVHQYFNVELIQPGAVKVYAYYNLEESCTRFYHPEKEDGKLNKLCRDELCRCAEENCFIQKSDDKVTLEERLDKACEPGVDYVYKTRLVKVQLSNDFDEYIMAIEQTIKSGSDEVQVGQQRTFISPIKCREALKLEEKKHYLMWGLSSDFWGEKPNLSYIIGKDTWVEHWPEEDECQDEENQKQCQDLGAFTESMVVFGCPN
Kind of data set: SPR kinetic analysis of binding to immobilized C3b (Biacore, single cycle kinetics). The settings on record: for ka: association rate / Kd / koff: Table 1, N-terminal analogs; for Kd: read-out: KD: binding constant from SPR; for koff: read-out: kd: dissociation rate. The procedure:
SPR analysis. The interaction of the compstatin analogs with C3b was characterized using a Biacore 3000 instrument (GE Healthcare, Corp., Piscataway, N.J.). The running buffer was PBS, pH 7.4 (10 mM sodium phosphate, 150 mM NaCl) with 0.005% Tween-20. Biotinylated C3b was captured site-specifically on a streptavidin chip at about 3000 and 5000 RU density; two untreated flow cells were used as reference surface. For kinetic analysis, sets of five increasing concentrations of a particular compound were injected over the chip surface one after the other in a single cycle. […] Processed biosensor data were globally fitted to a 1:1 Langmuir binding model (kindly provided by GE Helthcare), and the equilibrium dissociation constant (KD) was calculated from the equation KD=kd/ka. Each assay was performed at least twice.
For orientation: Surface plasmon resonance follows binding to a sensor surface in real time, without labels.

The structures appear in SMILES notation. In brackets after ≈: the same amount, converted by molar mass. Bridge positions count the residues as written; N and C are the ends. Square brackets hold non-standard residues; d marks the D form. Peptide text beside a SMILES is read from it. Trp(1-Me) = Cn1cc(C[C@H](N)C(=O)O)c2ccccc21; NMeI = CC[C@H](C)[C@H](NC)C(=O)O; Sar = CNCC(=O)O Bounds are passed on as bounds.

Take `CC[C@H](C)[C@H](NC(C)=O)C(=O)N[C@H]1CSSC[C@@H](C(=O)N[C@H](C(N)=O)[C@@H](C)O)NC(=O)[C@H](CCCNC(=N)N)NC(=O)[C@H](Cc2c[nH]cn2)NC(=O)[C@H](C)NC(=O)CNC(=O)[C@H](Cc2c[nH]c3ccccc23)NC(=O)[C@H](CC(=O)O)NC(=O)[C@H](CCC(N)=O)NC(=O)[C@H](Cc2cn(C)c3ccccc23)NC(=O)[C@H](C(C)C)NC1=O` [4(1MeW), reference compound]: the IC50 in data set [1] came out at 132 ± 7 nM. Also, the solubility (as a rule, how much of the substance goes into solution per volume) at 5 min in data set [2] turned out to be 3500 µg/mL (≈ 2150 µM). Also, the “Hydrophobicity Retention Time” value in data set [2] (UPLC analysis on a C18 column) was found to be 5.09 min.
In the case of `CC[C@H](C)[C@H](NC(=O)[C@H](C)NC)C(=O)N[C@H]1CSSC[C@@H](C(=O)N(C)[C@H](C(N)=O)[C@@H](C)CC)NC(=O)[C@H](CCCNC(=N)N)NC(=O)[C@H](Cc2c[nH]cn2)NC(=O)[C@H](C)NC(=O)CN(C)C(=O)[C@H](Cc2c[nH]c3ccccc23)NC(=O)[C@H](CC(=O)O)NC(=O)[C@H](CCC(N)=O)NC(=O)[C@H](Cc2cn(C)c3ccccc23)NC(=O)[C@H](C(C)C)NC1=O` [compound 13], on C3b, the “ka: association rate” value is listed as 1.4 ± 0.2 10^6/Ms; the Kd – broadly, a measure of binding affinity in units of concentration – came out at 2.5 ± 0.6 nM; the koff turned out to be 0.0034 ± 0.0003 s⁻¹.
In the case of `CC[C@H](C)[C@H](NC(=O)[C@H](N)Cc1ccccc1)C(=O)N[C@H]1CSSC[C@@H](C(=O)N(C)[C@H](C(N)=O)[C@@H](C)CC)NC(=O)[C@H](CCCNC(=N)N)NC(=O)[C@H](Cc2c[nH]cn2)NC(=O)[C@H](C)NC(=O)CN(C)C(=O)[C@H](Cc2c[nH]c3ccccc23)NC(=O)[C@H](CC(=O)O)NC(=O)[C@H](CCC(N)=O)NC(=O)[C@H](Cc2cn(C)c3ccccc23)NC(=O)[C@H](C(C)C)NC1=O` [compound 15], on C3b, the “ka: association rate” value is on record as 2.3 ± 0.3 10^6/Ms, the dissociation constant Kd came to 1.1 ± 0.1 nM and the koff was 0.0026 s⁻¹.
With `CC[C@H](C)[C@H](NC(=O)[C@H](N)Cc1c[nH]c2ccccc12)C(=O)N[C@H]1CSSC[C@@H](C(=O)N(C)[C@H](C(N)=O)[C@@H](C)CC)NC(=O)[C@H](CCCNC(=N)N)NC(=O)[C@H](Cc2c[nH]cn2)NC(=O)[C@H](C)NC(=O)CN(C)C(=O)[C@H](Cc2c[nH]c3ccccc23)NC(=O)[C@H](CC(=O)O)NC(=O)[C@H](CCC(N)=O)NC(=O)[C@H](Cc2cn(C)c3ccccc23)NC(=O)[C@H](C(C)C)NC1=O` [compound 16], the “ka: association rate” value on C3b is 2.0 ± 0.2 10^6/Ms.
Turning to `CC[C@H](C)[C@H](NC(=O)[C@H](N)CC1CCCCC1)C(=O)N[C@H]1CSSC[C@@H](C(=O)N(C)[C@H](C(N)=O)[C@@H](C)CC)NC(=O)[C@H](CCCNC(=N)N)NC(=O)[C@H](Cc2c[nH]cn2)NC(=O)[C@H](C)NC(=O)CN(C)C(=O)[C@H](Cc2c[nH]c3ccccc23)NC(=O)[C@H](CC(=O)O)NC(=O)[C@H](CCC(N)=O)NC(=O)[C@H](Cc2cn(C)c3ccccc23)NC(=O)[C@H](C(C)C)NC1=O` [compound 17], on C3b, the “ka: association rate” value is recorded as 1.8 ± 0.5 10^6/Ms, the dissociation constant Kd was found to be 1.5 ± 0.2 nM and the koff stood at 0.0027 ± 0.0004 s⁻¹.
On to `CC[C@H](C)[C@H](NC(=O)[C@@H](C)N)C(=O)N[C@H]1CSSC[C@@H](C(=O)N(C)[C@H](C(N)=O)[C@@H](C)CC)NC(=O)[C@H](CCCNC(=N)N)NC(=O)[C@H](Cc2c[nH]cn2)NC(=O)[C@H](C)NC(=O)CN(C)C(=O)[C@H](Cc2c[nH]c3ccccc23)NC(=O)[C@H](CC(=O)O)NC(=O)[C@H](CCC(N)=O)NC(=O)[C@H](Cc2cn(C)c3ccccc23)NC(=O)[C@H](C(C)C)NC1=O` [compound 18], for which, at C3b, the “ka: association rate” value was 1.4 ± 0.3 10^6/Ms, the dissociation constant (Kd) was determined as 2.5 ± 0.4 nM and the koff is 0.0034 ± 0.0004 s⁻¹.
For `CC[C@H](C)[C@H](NC)C(=O)N[C@H]1CSSC[C@@H](C(=O)N(C)[C@H](C(N)=O)[C@@H](C)CC)NC(=O)[C@H](CCCNC(=N)N)NC(=O)[C@H](Cc2c[nH]cn2)NC(=O)[C@H](C)NC(=O)CN(C)C(=O)[C@H](Cc2c[nH]c3ccccc23)NC(=O)[C@H](CC(=O)O)NC(=O)[C@H](CCC(N)=O)NC(=O)[C@H](Cc2cn(C)c3ccccc23)NC(=O)[C@H](C(C)C)NC1=O` [peptide 1], at C3b, the “ka: association rate” value is reported as 1.3 ± 0.3 10^6/Ms, the Kd came out at 18.6 ± 3.5 nM and the koff came out at 0.0248 ± 0.0073 s⁻¹. Also, the “Binding affinity by SPR, in words” value at C3b (compared with Cp40 (peptide 14)) is given as “high binding affinity”. Also, in data set [1], the IC50 turned out to be 180 ± 17 nM.
`CC[C@H](C)[C@H](NC(=O)CN)C(=O)N[C@H]1CSSC[C@@H](C(=O)N(C)[C@H](C(N)=O)[C@@H](C)CC)NC(=O)[C@H](CCCNC(=N)N)NC(=O)[C@H](Cc2c[nH]cn2)NC(=O)[C@H](C)NC(=O)CN(C)C(=O)[C@H](Cc2c[nH]c3ccccc23)NC(=O)[C@H](CC(=O)O)NC(=O)[C@H](CCC(N)=O)NC(=O)[C@H](Cc2cn(C)c3ccccc23)NC(=O)[C@H](C(C)C)NC1=O` [peptide 2] (H-GICV[Trp(1-Me)]QDW[Sar]AHRC[NMeI]-NH2; disulfide 3-13): on C3b, the “ka: association rate” value is recorded as 1.2 ± 0.3 10^6/Ms, the Kd amounted to 2.5 ± 0.5 nM and the koff came out at 0.0029 ± 0.0002 s⁻¹. For the same molecule, in data set [1], the IC50 turned out to be 113 ± 16 nM.
Consider `CC[C@H](C)[C@H](NC(=O)[C@@H](N)Cc1ccc(O)cc1)C(=O)N[C@H]1CSSC[C@@H](C(=O)N(C)[C@H](C(N)=O)[C@@H](C)CC)NC(=O)[C@H](CCCNC(=N)N)NC(=O)[C@H](Cc2c[nH]cn2)NC(=O)[C@H](C)NC(=O)CN(C)C(=O)[C@H](Cc2c[nH]c3ccccc23)NC(=O)[C@H](CC(=O)O)NC(=O)[C@H](CCC(N)=O)NC(=O)[C@H](Cc2cn(C)c3ccccc23)NC(=O)[C@H](C(C)C)NC1=O` [peptide 4], for which, at C3b, the “ka: association rate” value is given as 2.1 ± 0.3 10^6/Ms. In addition, the IC50 in data set [1] worked out at 72 ± 10 nM.
As to `CC[C@H](C)[C@@H](C(N)=O)N(C)C(=O)[C@@H]1CSSC[C@H](NC(=O)[C@H](Cc2c[nH]c3ccccc23)NC(C)=O)C(=O)N[C@@H](C(C)C)C(=O)N[C@@H](Cc2cn(C)c3ccccc23)C(=O)N[C@@H](CCC(N)=O)C(=O)N[C@@H](CC(=O)O)C(=O)N[C@@H](Cc2c[nH]c3ccccc23)C(=O)N(C)CC(=O)N[C@@H](C)C(=O)N[C@@H](Cc2c[nH]cn2)C(=O)N[C@@H](CCCNC(=N)N)C(=O)N1` [peptide 19] (Ac-WCV[Trp(1-Me)]QDW[Sar]AHRC[NMeI]-NH2; disulfide 2-12), on C3b, the “ka: association rate” value is recorded as 3.8 ± 0.3 10^6/Ms, the Kd came out at 0.5 nM and the koff was 0.0017 ± 0.0003 s⁻¹. For the same molecule, in data set [2], the solubility at 5 min was less than 200 µg/mL. This molecule also yielded a solubility in data set [2] (PBS) of less than 100 µM.
For the molecule `CC[C@H](C)[C@@H](C(N)=O)N(C)C(=O)[C@@H]1CSSC[C@H](NC(=O)CNC(=O)[C@@H](N)Cc2ccc(O)cc2)C(=O)N[C@@H](C(C)C)C(=O)N[C@@H](Cc2cn(C)c3ccccc23)C(=O)N[C@@H](CCC(N)=O)C(=O)N[C@@H](CC(=O)O)C(=O)N[C@@H](Cc2c[nH]c3ccccc23)C(=O)N(C)CC(=O)N[C@@H](C)C(=O)N[C@@H](Cc2c[nH]cn2)C(=O)N[C@@H](CCCNC(=N)N)C(=O)N1` [peptide 20] (H-YGCV[Trp(1-Me)]QDW[Sar]AHRC[NMeI]-NH2; disulfide 3-13), on C3b, the “ka: association rate” value is reported as 2.1 ± 0.3 10^6/Ms, the Kd came to 3.5 ± 0.3 nM and the koff turned out to be 0.0073 ± 0.0014 s⁻¹.
